Like-named read-outs stand apart in the source and are kept apart here.
What was measured:
[1] = target: HA-GST-Rheb (GTP-γ-S loaded) activating mTORC1 (Homo sapiens (Human), UniProt Q15382); test: Rheb-dependent in vitro kinase assay (Rheb-IVK; LanthaScreen or Western readout); assay type: biochemical
[2] = test system: T389pS6K1 in MCF-7 cells; test: Cell-based AlphaLISA assay, pS6K1 (Thr389)
[3] = test system: S473pAkt in MCF-7 cells; test: Cell-based AlphaLISA assay, pAkt (S473)
[4] = target: Rheb (Homo sapiens (Human), UniProt Q15382); test: Affinity Selection Mass Spectrometry (ASMS); assay type: binding; details: affinity (R3/R0) in Affinity Selection Mass Spectrometry assay
Chain of Rheb (Q15382 1-169 limits assumed): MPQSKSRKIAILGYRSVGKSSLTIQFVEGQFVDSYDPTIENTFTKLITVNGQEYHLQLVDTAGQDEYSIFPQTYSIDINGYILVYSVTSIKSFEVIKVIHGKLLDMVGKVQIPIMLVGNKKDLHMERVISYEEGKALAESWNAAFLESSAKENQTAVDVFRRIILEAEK
How it was run: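 Human Rheb (60 μM) with GDP (180 μM) and each compound at 2 μM, protein-plus versus protein-minus, incubated 30 min at room temperature, then washed by 10 kDa ultrafiltration. Retained ligand was released with MeCN and detected by UPLC-Q-TOF MS.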

[5] = test system: mTORC1 and mTORC2 signaling in PC3 cells; test: Long-term treatment vs. rapamycin in PC3 cells, Western blot; assay type: cell-based; details: replete, 2, 5, 18 or 24 hrs, NR1 30 μM, rapamycin 100 nM
[6] = LanthaScreen variation, Terbium labeled T46p4E-BP1 specific antibody, read-out: IC50 in the Rheb-IVK
[7] = Rheb-dependent in vitro kinase assay, read-out: IVK IC50

Chain of HA-GST-Rheb (GTP-γ-S loaded) activating mTORC1 (Q15382 1-181): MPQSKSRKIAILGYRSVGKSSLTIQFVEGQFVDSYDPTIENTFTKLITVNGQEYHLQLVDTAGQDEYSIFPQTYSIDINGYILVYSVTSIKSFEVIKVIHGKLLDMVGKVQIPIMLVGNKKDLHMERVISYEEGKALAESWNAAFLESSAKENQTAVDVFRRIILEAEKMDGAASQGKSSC

Structure (SMILES) | IC50 [1, 7] | IC50 ([2]; Homo sapiens, MCF7) | ASMS (R3/R0) [4] | other results
CCC(=O)N1CCN(c2ccc(-n3c(=O)ccc4cnc5ccc(-c6cnc7ccccc7c6)cc5c43)cc2C(F)(F)F)CC1 [Torin-1, reference compound] |  |  |  | IC50 [1, 6]: ~0.002 µM; IC50 [2]: ~0.001 µM; IC50 [3]: ~0.005 µM
CN1CCN(c2ccc(NC(=O)c3cc4c(Sc5ccc(Cl)cc5)cc(Cl)cc4[nH]3)cc2F)CC1 [I-141, 6-chloro-4-(4-chlorophenylthio)-N-(3-fluoro-4-(4-methylpiperazin-1-yl)phenyl)-1H-indole-2-carboxamide] | < 10 µM | < 10 µM | B (an affinity (R3/R0) between 100% and 20%) | 
CN1CCC(NC(=O)c2cc3c(Sc4ccc(Cl)cc4)cc(Cl)cc3[nH]2)C1 (stereo not drawn) [I-79, 6-chloro-4-(4-chlorophenylthio)-N-(1-methylpyrrolidin-3-yl)-1H-indole-2-carboxamide] | < 10 µM | < 10 µM | B (an affinity (R3/R0) between 100% and 20%) | 
CN1CCC(CNC(=O)c2cc3c(Sc4ccc(Cl)cc4Cl)cc(Cl)cc3[nH]2)CC1 [I-120, 6-chloro-4-(2,4-dichlorophenylthio)-N-((1-methylpiperidin-4-yl)methyl)-1H-indole-2-carboxamide] | < 10 µM | < 10 µM | B (an affinity (R3/R0) between 100% and 20%) | 
CN1CCN(c2cccc(NC(=O)c3cc4c(-c5cc(Cl)cc(Cl)c5)cc(Cl)cc4[nH]3)c2)CC1 [I-30, 6-chloro-4-(3,5-dichlorophenyl)-N-(3-(4-methylpiperazin-1-yl)phenyl)-1H-indole-2-carboxamide] | < 10 µM | < 10 µM | A (an affinity (R3/R0)>100%) | 
CN1CCC(CCNC(=O)c2cc3c(Sc4ccc(Cl)cc4)cc(Cl)cc3[nH]2)CC1 [I-142, 6-chloro-4-(4-chlorophenylthio)-N-(2-(1-methylpiperidin-4-yl)ethyl)-1H-indole-2-carboxamide] | < 10 µM | < 10 µM | A (an affinity (R3/R0)>100%) | 
CO[C@H]1C[C@@H]2CC[C@@H](C)[C@@](O)(O2)C(=O)C(=O)N2CCCC[C@H]2C(=O)O[C@H]([C@H](C)C[C@@H]2CC[C@@H](O)[C@H](OC)C2)CC(=O)[C@H](C)/C=C(\C)[C@@H](O)[C@@H](OC)C(=O)[C@H](C)C[C@H](C)/C=C/C=C/C=C/1C [rapamycin, reference compound] |  |  |  | inhibition of the Rheb-IVK ([1]; LanthaScreen variation, no FKBP12 present): did not inhibit the Rheb-IVK; mTORC1 versus mTORC2 signaling with chronic exposure (T389pS6K1, S473pAkt) [5]: inhibits mTORC2 signaling with chronic exposure
CN(C)C(=O)c1ccc(Cn2c(C(=O)O)cc3c(Br)cc(Sc4ccc(Cl)c(Cl)c4)cc32)cc1 [I-102, 4-Bromo-6-(3,4-dichlorophenylthio)-1-(4-(dimethylcarbamoyl)benzyl)-1H-indole-2-carboxylic acid] | < 10 µM |  | B (an affinity (R3/R0) between 100% and 20%) | IC50 [1, 6]: ~2.1 µM; inhibition of pAKT [3]: did not inhibit pAKT

— patent publication US11339144B2 (Navitor Pharmaceuticals, Inc., priority 2017, dated 2022)
